What was measured:
DR5 = DR5 knockout (DR5-KO) versus DR5-WT TNBC cells: viability, PD-L1, S5a, ubiquitin; type: cell-based, human; conditions: for overall ubiquitin signal in lysates: DR5 sensitive versus DR5-KO cells (FIG. 2P)
Method: In Vitro Cell Viability Assays. Cell viability following Apo2L, lexatumumab, KMTR2, tigatuzumab, AMG-655, MD5-1, avelu-MD5, etc. treatments as indicated in the Figures either alone in combination with inhibitors (ROCK1, ERK, caspase inhibitors, etc.) or in combination with an anti-Fc reagent (For tigatuzumab, AMG-655, MD5-1, etc.) were determined using the ALAMARBLUE™ cell viability assays and MTT cell proliferation assays as per the manufacturer's protocols (ThermoFisher Scientific). Briefly, cells were treated with increasing concentration of various antibodies as indicated along with relevant positive and negative control antibodies for 6 hours, 24 hours, or 48 hours as indicated. For each cell killing assay the figures show the representative profiles from n=2-4 with different cultured confluency. Whenever used for immunoblotting, following antibodies treatment caspase-3 processing in tumor cells was monitored using selective antibodies that recognize cleaved human caspase-3 or total caspase-3 (Catalog Nos. 9661 and 9668; Cell Signaling Technology, Danvers, Massachusetts, United States of America). TRAIL-R2 receptor in oligomerization was determined using immunoblotting assays (Cell Signaling Technology Rabbit mAb, Catalog No. 8074). Cell viability was additionally examined by flow cytometry based apoptotic detection methods using 7-aminoactinomycin D (7-ADD) exclusion from live cells.
Western Blotting. Cells were cultured overnight in tissue culture-treated 6-well plates prior to treatment. After antibody treatment for 48 hours or another indicated time, cells were rinsed with PBS and then lysed with RIPA buffer supplemented with protease inhibitor cocktail (ThermoFisher Scientific). Centrifugation at 14000 rpm for 30 minutes cleared lysates and protein was quantified by PIERCE™ BCA Protein Assay Kit (ThermoFisher Scientific). Western blotting was performed using the Bio-Rad SDS-PAGE Gel system. Briefly, 30 μg of protein was resolved on 10% Bis-Tris gels and then transferred onto PVDF membrane. Membranes were blocked for one hour at room temperature in TBS+0.1% Tween (TBST) with 5% non-fat dry milk. Membranes were probed overnight at 4° C. with primary antibodies. Membranes were washed three times in TBST and then incubated with anti-rabbit or anti-mouse secondary antibodies (1/10,000 dilution, coupled to peroxidase) for 1 hour at room temperature. Membranes were then washed three times with TBST and immunocomplexes were detected with SUPERSIGNAL™ West Pico Chemiluminescent Substrate (ThermoFisher Scientific). […]
Flow cytometry. The cell surface expression of PD-L1, CD47, huDR5, muDR5, CD8, CD4, CD25 etc. was analyzed by flow cytometry. […] The data was analyzed by FCS Express (De Novo Software, Los Angeles, California, United States of America) and FlowJo. […]

UCD52 TNBC PDX tumors = experiment: PD-L1 IHC of KMTR2 treated UCD52 TNBC PDX tumors; type: in vivo, mouse; conditions: KMTR2 50 μg, 4 doses; NSG mice
PD-L1 = experiment: Western blotting / flow cytometry of PD-L1 and regulators in tumor cells; type: cell-based, human; conditions: ovarian and TNBC tumor cells
Method: Western Blotting. Cells were cultured overnight in tissue culture-treated 6-well plates prior to treatment. After antibody treatment for 48 hours or another indicated time, cells were rinsed with PBS and then lysed with RIPA buffer supplemented with protease inhibitor cocktail (ThermoFisher Scientific). Centrifugation at 14000 rpm for 30 minutes cleared lysates and protein was quantified by PIERCE™ BCA Protein Assay Kit (ThermoFisher Scientific). Western blotting was performed using the Bio-Rad SDS-PAGE Gel system. Briefly, 30 μg of protein was resolved on 10% Bis-Tris gels and then transferred onto PVDF membrane. Membranes were blocked for one hour at room temperature in TBS+0.1% Tween (TBST) with 5% non-fat dry milk. Membranes were probed overnight at 4° C. with primary antibodies. Membranes were washed three times in TBST and then incubated with anti-rabbit or anti-mouse secondary antibodies (1/10,000 dilution, coupled to peroxidase) for 1 hour at room temperature. Membranes were then washed three times with TBST and immunocomplexes were detected with SUPERSIGNAL™ West Pico Chemiluminescent Substrate (ThermoFisher Scientific). Images were taken using a Bio-Rad Gel Doc Imager system.
(§1) Flow cytometry. The cell surface expression of PD-L1, CD47, huDR5, muDR5, CD8, CD4, CD25 etc. was analyzed by flow cytometry. Overnight grown tumors were trypsinized and suspended in FACS buffer (PBS containing 2% FBS). Single cell suspensions were then incubated with primary DR4/DR5 antibodies for 1 hour at 4° C. with gentle mixing. Following wash with FACS buffer, the cells were then incubated with fluorescently labeled anti-Rabbit antibody for 1 hour. Cells were washed and flow cytometry was performed using a BD FACSCALIBUR™ flow cytometer. The data was analyzed by FCS Express (De Novo Software, Los Angeles, California, United States of America) and FlowJo.

[1] = tested on: DR5-KO (MDA-MB-231) cells; experiment: ApoEV isolation and PD-L1 transfer to DR5-KO cells; type: cell-based, human; conditions: ApoEVs from treated DR5-WT cells
Method: FIG. 12. TNF-α stabilized PD-L1 is not shuttled to ApoEVs. ApoEVs were isolated from DR5-WT MDA-MB-436 and OVCAR-3 cells after treatment with IgG1, TNF-α and lexatumumab. Isolated ApoEVs were incubated on to DR5-KO (MDA-MB-231) cells. After 24 hours surface PD-L1 of DR5-KO cells was analyze by flow cytometry. Top panel show secondary antibody control, IgG1 treatment control and basal level PD-L1 levels on MDA-MB-231 DR5 KO cells.
ApoEV isolation. 4×10^6 cells were seeded onto 3×150 mm dishes in a total volume of 45 ml of DMEM supplemented with 10% exosome-free FBS and grown for 12 hours. Media of each plate was changed with serum-free medium and incubate the cells at 37° C. for 6-12 hours, with or without various antibody treatments. For all ApoEV studies, the tissue culture media was spun at 8000×g for 15 minutes. The pellet was discarded and the supernatants (SN) were passed through 0.22 um filter. ApoEVs were isolated by the ultracentrifugation method. Collected tissue culture media was spun at 5,000×g for 10 minutes to remove contaminating cellular particles, and the resulting supernatant was spun at 80,000×g for 4 hours at 4° C. to pellet ApoEVs. ApoEV pellets were resuspended in 500 μl of serum-free medium and were used for either cellular treatments, dot blots assays and immunoblotting assays.

MDA-MB-436 cells = experiment: Flow cytometry of surface PD-L1 on tumor cells treated with DR5 agonist antibodies (FIG. 20B); type: cell-based, human
Method: FIGS. 20A-20C. (FIG. 20A) 3 biological replicates of total PD-L1 and GAPDH from triple negative breast cancer cell (MDAMB-436) and ovarian cell (OVCAR-3) lysates treated with lexatumumab for 6 hours. (FIG. 20B) Raw mean fluorescent intensity (MFI) and % positive PD-L1 counts from the cells treated with indicated DR5 agonist antibodies. MFI values are shown on the top of solid color bars. There are multiple instances (shown on the top) where despite having lower % positive PD-L1 population, MFI values were higher after indicated DR5 agonist treatments. As an example, in MDA-MB-436 cells treated with tigatuzumab and lexatumumab, lexatumumab treated cells had higher % positive PD-L1 population (9.32 vs 11.97), however MFI was higher in tigatuzumab treated population (107.54 vs 45.87). (FIG. 20C) KMTR2 treated (50 μg, 4 doses) UCD52 TNBC PDX tumors were stained for PD-L1 using immunohistochemistry (IHC). 3 additional representative images are shown. Also see FIG. 1L.
as §1
PD-L1 surface expression analysis of tumor derived cells. The cell surface expression of PD-L1 from tumor-derived cell was analyzed by flow cytometry. Isolated cells were suspended in FACS buffer (PBS containing 1% FBS). The single cell suspension was then incubated with primary PD-L1 antibodies (1:400 dilution) for 1 hour at 4° C. with gentle mixing. […] Following 3 times wash with FACS buffer, the cells were then incubated with fluorescently labeled (alexa 488) anti-Rabbit secondary antibody for 1 hour. Cells were then washed 3-4 times with FACS buffer and flow cytometry was performed using BD FACSCALIBUR™. The data was analyzed by FCS Express (De Novo Software) and FlowJo software.

[2] = tested on: chi-G4S-DR5 stable 4T1 tumors; experiment: Surface PD-L1 flow cytometry of cells recovered from Chi-G4S-DR5 stable 4T1 tumors; type: in vivo, mouse; conditions: 4 doses; flow cytometry of recovered tumors (FIGS. 5G, 23)
From the text: Mechanical dissociation of tumors to obtain single-cell suspensions. Viable single cells from tumor tissues were isolated as described in Leelatian et al, 2017. Briefly, after indicated antibody treatments (4-6 doses) mice were euthanized and tumors were harvested using sterile scissors and forceps. After excision of tumor, they were minced into small pieces in sterile RPMI-1640 media using two single-edged razor blades. Small tumor pieces were passed through a 70 µm cell strainer in sterile RPMI-1640 media. A rubber plunger and syringe were used to mesh the dissociated cells through the cell strainer and media containing dissociated cells was collected onto a sterile labeled conical tube. Dissociated tumor cells were subjected to flow cytometry (FACS) analysis for PD-L1, DR5, N-cadherin, FOLR1, CD47 etc. surface expression as described under flow cytometry protocol.
PD-L1 surface expression analysis of tumor derived cells. The cell surface expression of PD-L1 from tumor-derived cell was analyzed by flow cytometry. Isolated cells were suspended in FACS buffer (PBS containing 1% FBS). […] The data was analyzed by FCS Express (De Novo Software) and FlowJo software.
Chimeric DR5 cloning and Human DR5 agonist testing studies in Balb/c animals. […] Tumors were monitored as described herein above. […]

Chain of DR5 (O14763 56-184 limits assumed): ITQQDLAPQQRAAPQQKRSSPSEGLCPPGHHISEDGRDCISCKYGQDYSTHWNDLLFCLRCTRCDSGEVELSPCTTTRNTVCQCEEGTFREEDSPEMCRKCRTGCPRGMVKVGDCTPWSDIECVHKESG

Row | Substance | overall ubiquitin signal in lysates (DR5) | PD-L1 stabilization by IHC (UCD52 TNBC PDX tumors) | PD-L1 stabilization / surface mobilization in DR5-KO lines (DR5; DR5-KO compared to DR5-WT cells) | S5a/PSMD4 levels (DR5; MDA-MB-436 WT and DR5-KO cells) | PD-L1 and CSN5 stabilization in lysates (PD-L1) | PD-L1 in ApoEVs / shuttling of PD-L1 via ApoEVs [1] | PD-L1 mean fluorescent intensity (MFI) (MDA-MB-436 cells; MDA-MB-436 cells treated with DR5 agonist antibody (FIG. 20B)) | % positive PD-L1 population (MDA-MB-436 cells; MDA-MB-436 cells treated with DR5 agonist antibody, raw flow cytometry counts (FIG. 20B)) [%] | PD-L1 on cell surface of tumor cells [2]
1 | KMTR2: Monospecific Antibody, Human DR5 activator; VL and VH SEQ ID NOs: 7 and 8 | increased only in DR5 sensitive cell lysates | PD-L1 stabilization was also confirmed | – | – | – | – | – | – | –
2 | TNF-α | – | – | remained unchanged | stabilized PD-L1 without affecting S5a levels | stabilized both PD-L1 and CSN5 | did not shuttle significant amount of PD-L1 via ApoEVs | – | – | –
3 | lexatumumab: Monospecific Antibody, Human DR5 activator; VL and VH SEQ ID NOs: 1 and 2 | increased only in DR5 sensitive cell lysates | – | – | – | – | – | 45.87 | 11.97 | higher overall PD-L1 on cell surface

From patent US20230391881A1, “COMPOSITIONS AND METHODS FOR OVERCOMING DR5-INDUCED IMMUNE EVASION BY SOLID TUMORS” (University of Virginia Patent Foundation, priority 2020, published 2023)
